Patent US20260365682A1, “MODULATORS OF TNF-ALPHA ACTIVITY” (Forward Therapeutics, Inc., priority 2022, published 2026)
Where two headings read alike, the source gives them in different places.

Target: T1, TNF-α (Homo sapiens, UniProt P01375)
T1 construct: purchased R&D 210-TA-020/CF
Assay: TNF-α Induced HEK Blue Cellular Assay (secreted alkaline phosphatase expression, QUANTI-Blue)
Assay type: cell-based
Conditions: HEK Blue TNFα reporter cells, TNF-α 100 μg/ml, 24 hrs at 37° C., inhibition of secreted alkaline phosphatase
Summary of the method: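 HEK Blue TNFα reporter cells (10,000/well) in DMEM with 10% FBS received compound ([…] to 0.5 nM final) and TNF-α at […] final for 24 h at 37° C. Secreted alkaline phosphatase read with QUANTI-Blue at 620 nm. IC50 came from a 4-parameter logistic fit after normalising to unstimulated and stimulated DMSO controls.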

T1 sequence (P01375 77-233 limits assumed): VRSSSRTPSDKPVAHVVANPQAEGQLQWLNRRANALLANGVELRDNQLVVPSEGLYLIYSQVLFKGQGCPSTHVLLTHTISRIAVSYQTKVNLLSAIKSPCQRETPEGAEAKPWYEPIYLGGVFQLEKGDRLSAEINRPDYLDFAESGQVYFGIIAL

SMILES | IC50 (IC50 value) [nM] | IC50 (read-out: IC50 value) [nM]
[2H]C([2H])([2H])N1C(=O)c2cccc(OC(F)F)c2[C@H]2C[C@@H]1c1nc3ccc(C#CCCN4CCC4)cc3n12 [Example 135, (7R,14R)-11-(4-(azetidin-1-yl)but-1-yn-1-yl)-1-(difluoromethoxy)-6-(methyl-d3)-6,7-dihydro-7,14-methanobenzo[f]benzo[4,5]imidazo[1,2-a][1,4]diazocin-5(14H)-one] | < 100 | 
[2H]C([2H])([2H])N1C(=O)c2cccc(OC(F)F)c2[C@H]2C[C@@H]1c1nc3ccc(C#CCCN4CCCC4)cc3n12 [Example 136, (7R,14R)-1-(difluoromethoxy)-6-(methyl-d3)-11-(4-(pyrrolidin-1-yl)but-1-yn-1-yl)-6,7-dihydro-7,14-methanobenzo[f]benzo[4,5]imidazo[1,2-a][1,4]diazocin-5(14H)-one] |  | < 100
[2H]C([2H])([2H])N1C(=O)c2cccc(OC(F)F)c2[C@H]2C[C@@H]1c1nc3ccc(C#CCC(=O)OC)cc3n12 [Example 138, methyl 4-((7R,14R)-1-(difluoromethoxy)-6-(methyl-d3)-5-oxo-5,6,7,14-tetrahydro-7,14-methanobenzo[f]benzo[4,5]imidazo[1,2-a][1,4]diazocin-11-yl)but-3-ynoate] |  | 10000 to 30000
[2H]C([2H])([2H])N1C(=O)c2cccc(OC(F)F)c2[C@H]2C[C@@H]1c1nc3ccc(C#CC4CC(C#N)C4)cc3n12 (stereo partly drawn) [Example 141, 3-(((7R,14R)-1-(difluoromethoxy)-6-(methyl-d3)-5-oxo-5,6,7,14-tetrahydro-7,14-methanobenzo[f]benzo[4,5]imidazo[1,2-a][1,4]diazocin-11-yl)ethynyl)cyclobutane-1-carbonitrile] |  | < 100
[2H]C([2H])([2H])N1C(=O)c2cccc(OC(F)F)c2[C@H]2C[C@@H]1c1nc3ccc(C#C[C@H](C)COC)cc3n12 [Example 142, (7R,14R)-1-(difluoromethoxy)-11-((S)-4-methoxy-3-methylbut-1-yn-1-yl)-6-(methyl-d3)-6,7-dihydro-7,14-methanobenzo[f]benzo[4,5]imidazo[1,2-a][1,4]diazocin-5(14H)-one] |  | < 100
[2H]C([2H])([2H])N1C(=O)c2cccc(OC(F)F)c2[C@H]2C[C@@H]1c1nc3ccc(C#CCCN4CC(C)(O)C4)cc3n12 [Example 143, (7R,14R)-1-(difluoromethoxy)-11-(4-(3-hydroxy-3-methylazetidin-1-yl)but-1-yn-1-yl)-6-(methyl-d3)-6,7-dihydro-7,14-methanobenzo[f]benzo[4,5]imidazo[1,2-a][1,4]diazocin-5(14H)-one] |  | < 100
[2H]C([2H])([2H])N1C(=O)c2cccc(OC(F)F)c2[C@H]2C[C@@H]1c1nc3ccc(C#CCO)cc3n12 [Example 144, (7R,14R)-1-(difluoromethoxy)-11-(3-hydroxyprop-1-yn-1-yl)-6-(methyl-d3)-6,7-dihydro-7,14-methanobenzo[f]benzo[4,5]imidazo[1,2-a][1,4]diazocin-5(14H)-one] |  | 100 to 1000
[2H]C([2H])([2H])N1C(=O)c2cccc(OC(F)F)c2[C@H]2C[C@@H]1c1nc3c(F)cc(C#CC4(C)COC4)cc3n12 [Example 145, (7R,14R)-1-(difluoromethoxy)-9-fluoro-6-(methyl-d3)-11-((3-methyloxetan-3-yl)ethynyl)-6,7-dihydro-7,14-methanobenzo[f]benzo[4,5]imidazo[1,2-a][1,4]diazocin-5(14H)-one] |  | < 100
[2H]C([2H])([2H])N1C(=O)c2cccc(OC(F)F)c2[C@H]2C[C@@H]1c1nc3ccc(C#CC4(C)COC4)c(F)c3n12 [Example 146, (7R,14R)-1-(difluoromethoxy)-12-fluoro-6-(methyl-d3)-11-((3-methyloxetan-3-yl)ethynyl)-6,7-dihydro-7,14-methanobenzo[f]benzo[4,5]imidazo[1,2-a][1,4]diazocin-5(14H)-one] |  | 100 to 1000
[2H]C([2H])([2H])N1C(=O)c2cccc(OC(F)F)c2[C@H]2C[C@@H]1c1nc3ccc(C#C[C@@H](C)COC)cc3n12 [Example 147, (7R,14R)-1-(difluoromethoxy)-11-((R)-4-methoxy-3-methylbut-1-yn-1-yl)-6-(methyl-d3)-6,7-dihydro-7,14-methanobenzo[f]benzo[4,5]imidazo[1,2-a][1,4]diazocin-5(14H)-one] |  | < 100
[2H]C([2H])([2H])N1C(=O)c2cccc(OC(F)F)c2[C@H]2C[C@@H]1c1nc3ccc(C#CC4CC(F)(F)C4)cc3n12 [Example 150, (7R,14R)-11-((3,3-difluorocyclobutyl)ethynyl)-1-(difluoromethoxy)-6-(methyl-d3)-6,7-dihydro-7,14-methanobenzo[f]benzo[4,5]imidazo[1,2-a][1,4]diazocin-5(14H)-one] |  | < 100
[2H]C([2H])([2H])N1C(=O)c2cccc(OC(F)F)c2[C@H]2C[C@@H]1c1nc3ccc(C#CCCNC)cc3n12 [Example 151, (7R,14R)-1-(difluoromethoxy)-6-(methyl-d3)-11-(4-(methylamino)but-1-yn-1-yl)-6,7-dihydro-7,14-methanobenzo[f]benzo[4,5]imidazo[1,2-a][1,4]diazocin-5(14H)-one] |  | 100 to 1000
[2H]C([2H])([2H])N1C(=O)c2cccc(OC(F)F)c2[C@H]2C[C@@H]1c1nc3ccc(C#CCCNCC)cc3n12 [Example 152, (7R,14R)-1-(difluoromethoxy)-11-(4-(ethylamino)but-1-yn-1-yl)-6-(methyl-d3)-6,7-dihydro-7,14-methanobenzo[f]benzo[4,5]imidazo[1,2-a][1,4]diazocin-5(14H)-one] |  | 100 to 1000
[2H]C([2H])([2H])N1C(=O)c2cccc(OC(F)F)c2[C@H]2C[C@@H]1c1nc3ccc(C#CCCCNC)cc3n12 [Example 153, (7R,14R)-1-(difluoromethoxy)-6-(methyl-d3)-11-(5-(methylamino)pent-1-yn-1-yl)-6,7-dihydro-7,14-methanobenzo[f]benzo[4,5]imidazo[1,2-a][1,4]diazocin-5(14H)-one] |  | 100 to 1000
[2H]C([2H])([2H])N1C(=O)c2cccc(OC(F)F)c2[C@H]2C[C@@H]1c1nc3ccc(C#CCCN4CC(C)(C#N)C4)cc3n12 [Example 154, 1-(4-((7R,14R)-1-(difluoromethoxy)-6-(methyl-d3)-5-oxo-5,6,7,14-tetrahydro-7,14-methanobenzo[f]benzo[4,5]imidazo[1,2-a][1,4]diazocin-11-yl)but-3-yn-1-yl)-3-methylazetidine-3-carbonitrile] |  | < 100
[2H]C([2H])([2H])N1C(=O)c2cccc(OC(F)F)c2[C@H]2C[C@@H]1c1nc3ccc(C#CC4(C)CN(C)C4)cc3n12 [Example 155, (7R,14R)-1-(difluoromethoxy)-11-((1,3-dimethylazetidin-3-yl)ethynyl)-6-(methyl-d3)-6,7-dihydro-7,14-methanobenzo[f]benzo[4,5]imidazo[1,2-a][1,4]diazocin-5(14H)-one] |  | < 100
[2H]C([2H])([2H])N1C(=O)c2cccc(OC(F)F)c2[C@H]2C[C@@H]1c1nc3ccc(C#CC4(C)CN(C(=O)C(C)(C)O)C4)cc3n12 [Example 156, (7R,14R)-1-(difluoromethoxy)-11-((1-(2-hydroxy-2-methylpropanoyl)-3-methylazetidin-3-yl)ethynyl)-6-(methyl-d3)-6,7-dihydro-7,14-methanobenzo[f]benzo[4,5]imidazo[1,2-a][1,4]diazocin-5(14H)-one] |  | 100 to 1000
